Patent US20170112792A1, “ENHANCED ATRA-RELATED COMPOUNDS DERIVED FROM STRUCTURE-ACTIVITY RELATIONSHIPS AND MODELING FOR INHIBITING PIN1” (Beth Israel Deaconess Medical Center, Inc., priority 2014, published 2017)

Assays:
[1] = target: T1, Pin1 (Homo sapiens, UniProt Q13526); assay: photoaffinity labeling of Pin1 with [3H]ATRA; format: binding; settings: read-out: equilibrium dissociation constant Kd
T1 construct: His6 (N); made in house; host or cells: E. coli (inferred: pET28, IPTG induction, LB culture; BL21(DE3) is printed only for the WW domain)
Procedure: […] of Pin1 was incubated in microcentrifuge tubes with a series of concentrations of all-trans-[11,12-^3H]-retinoic acid (PerkinElmer, 43.7 Ci/mmol) in 20 μl of the FP assay buffer at 23° C. with agitation for 2 hours in the dark. The caps of the microcentrifuge tubes were opened, and the samples were placed on ice and exposed to an Electrophoresis System 365/254 nm UV hand lamp (Fisher Scientific) suspended 6 cm above the surface of the liquid for 15 minutes. The samples were boiled in SDS sample buffer and subsequently separated on standard SDS/PAGE gels. The gels were dried and then used for fluorography at −80° C. for 5 days and quantified using Quantity One from BioRad.

[2] = target: T2, GST-Pin1 (Homo sapiens, UniProt Q13526); assay: chymotrypsin coupled PPlase activity assay, Pin1; format: biochemical
Description: where Km is the Michaelis constant for the used substrate, S is the initial concentration of the substrate in the assay, and the IC50 value is of the inhibitor.

[3] = target: GST-FKBP12 (Homo sapiens, UniProt P62942); assay: chymotrypsin coupled PPlase activity assay, FKBP12; format: biochemical
[4] = test system: Pin1; assay: Pin1 protein level, mRNA and stability in MEFs (immunoblot, RT-PCR, CHX chase); format: cell-based, mouse
Procedure: RNA from cells was extracted with the Total RNA isolation mini kit (Agilent). cDNA was prepared with transcriptor first strand cDNA synthesis kit (Roche) and PCR was carried out with iQ SYBR Green Supermix (Bio-Rad) or SYBR Green PCR Master Mix (Applied Blosystems). 1 μl cDNA was used for each RT-PCR reaction. Samples were run on the QIAGEN Rotor-Gene Q real-time cycler or the Applied Biosystems StepOnePlus Real Time PCR instrument. GAPDH was used as an internal control. Analysis was performed with the ^ΔΔCt method. The following primers were used: […]

[5] = test system: Pin1 and PML-RARα in NB4 cells; assay: immunoblot of Pin1 and PML-RARα in APL NB4 cells; format: cell-based, human
Procedure: (§2) For immunoprecipitation and immunoblotting in the examples below, cells were polyethylenimine (PEI)- or lipofemamine-transfected with 8 μg of various plasmids, incubated in 10 cm dishes for 24 hours, and subsequently treatment with drugs as needed. […] After centrifugation at 13,000 g for 10 minutes, one tenth of the supernatant was stored as input, and the remainder was incubated 12 hours with M2 Flag agarose (Sigma). After brief centrifugation, immunoprecipitates were collected, extensively washed with the aforementioned lysis buffer twice, suspended in 2×SDS sample buffer (100 mM Tris-HCl, pH 6.8, 4% SDS, 5% β-mercaptoethanol, 20% glycerol, and 0.1% bromphenol blue), boiled for 10 minutes, and subjected to immunoblotting analysis. […] After electrophoresis, gel was transferred to nitrocellulose membranes using a semidry transfer cell. The transblotted membrane was washed twice with Tris-buffered saline containing 0.1% Tween 20 (TBST). After blocking with TBST containing 5% bovine serum albumin (BSA) for 1 hour, the membrane was incubated with the appropriate primary antibody (diluted 1:1000) in 2% BSA-containing TBST at 4° C. overnight. After incubation with the primary antibody, the membrane was washed three times with TBST for a total of 30 minutes followed by incubation with horseradish peroxidase (HRP)-conjugated goat anti-rabbit or anti-mouse IgG (diluted 1:2500) for 1 hour at room temperature. After three extensive washes with TBST for a total of 30 minutes, the immunoblots were visualized by enhanced chemiluminescence.

[6] = test system: human APL NB4 cells; assay: NB4 cell growth; format: cell-based
Procedure: (§1) Absorbance was determined at 570 nm.

[7] = test system: human normal and breast cancer cell lines; assay: cell growth of human normal and breast cancer cell lines; format: cell-based; settings: 72 hours
Procedure: as §1
To test this possibility, we chose breast cancer as a model due to the substantial oncogenic role of Pin1 in vitro and in vivo.

[8] = test system: DC2.4 cells; assay: IL-33-induced gene expression in DC2.4 cells expressing IRAKM or mutants; format: cell-based, mouse
Description: In the left panels, western blots show protein levels of IRAKM, Pin1 and tubulin. The right panels show the relative gene expression of IL-6, CXCL2, CSF3 and CCL5 in the different samples normalized to actin.

[9] = test system: APL cells isolated from hCG-PML-RARα transgenic mice; settings: same regimens
[10] = humans; cited from earlier work
[11] = test system: MRL/lpr lupus prone mice; assay: MRL/lpr lupus prone mice
[12] = test system: IL-33-induced asthma; assay: IL-33-induced asthma in mice
[13] = test system: MDA-MB-231 cells; assay: MDA-MB-231 xenograft in nude mice
Description: In pilot experiments, MDA-MB-231 cells were subcutaneously injected into female nude mice in the flank.

[14] = test system: MDA-MB-468 cells; assay: MDA-MB-468 xenograft in nude mice
Procedure: Tumor sizes were measured weekly and mice were sacrificed after 7 weeks to collect tumor tissues (37D). […] Pin1 and cyclin D1 in xenograft tumors were assayed by IB (37F).

[15] = test system: Pin1 WT and Pin1 KO mouse embryonic fibroblasts (MEFs); assay: cell growth of Pin1 WT and KO MEFs
Procedure: For cell growth assays described below, cells were seeded in a density of 3000 cells per well in 96-well flat-bottomed plates, and incubated for 24 h in 10% FBS-supplemented DMEM culture medium. […] Control cells received DMSO at a concentration equal to that in drug-treated cells. After 72 hours, the number of cells was counted after trypsin digestion, or medium containing 0.5 mg/ml 3-(4,5-dimethylthiazol-2-yl)-2,5-diphenyl-2H-tetrazolium bromide was added to each well for 2 hours of incubation at 37° C., followed by removal of the media before the addition of 200 μl DMSO. Absorbance was determined at 570 nm.

[16] = test system: SKBR3 cells; assay: foci formation assay with Pin1 overexpression
[17] = test system: RAR; assay: transactivation of RAR downstream target genes
[18] = test system: GST-cyclophilin; assay: chymotrypsin coupled PPlase activity assay, cyclophilin
[19] = test system: NIH3T3 cells stably expressing Flag-tagged Pin1; assay: centrosome amplification induced by Pin1 overexpression; settings: 72 hours
Procedure: Tissue samples were washed with PBS and fixed with 4% paraformaldehyde at room temperature for 20 minutes, followed by permeabilization and blocking with PBS containing 0.1% Triton X-100 and 5% FBS for 1 hour. After another wash with PBS, immunostaining was performed by incubating the cells with mouse anti-Pin1 (1:1000), or rabbit anti-PML (Santa Cruz; 1:100) primary antibodies at 4° overnight. Primary antibodies were diluted in PBS containing 0.1% Triton X-100, 0.2% BSA, 0.5 mM PMSF, and 1 mM dithiothreitol. […] Samples were nuclear counterstained with 4,6-diamidino-2-phenylindole (DAPI), mounted and visualized with a LSM510 confocal imaging system. For centrosome duplication assays, NIH3T3 cells were used. Cells were synchronized in G1/S phase by adding 10 μg/ml aphidicolin for 24 hours, then fixed with 4% paraformaldehyde at room temperature for 20 minutes. Cells were then stained for centrosomes with anti-γ-tubulin antibodies (Sigma; 1:100) and analyzed by confocal microscopy.

[20] = test system: Pin1 and its substrate oncogenes and tumor suppressors; assay: immunoblot of Pin1 and its substrate proteins in breast cells
Procedure: as §2

[21] = target: T2, GST-Pin1; assay: fluorescence polarization (FP) pTide competition assay / FP-HTS
Description: This sequence was optimized for solubility and binding to GST-PPI. […] Measurements of fluorescence polarization and fluorescence absorbance were made in black 384-well plates (Corning) using a Synergy II plate reader. Compounds were transferred to plates using a custom-built Seiko pin-transfer robot at the Institute for Chemistry and Cell Biology at Harvard Medical School. The assay can tolerate up to 10%/o DMSO.
Molecules that compete with pTide for binding to the active site, e.g., Pin1 substrates, were detected under equilibrium conditions. A Z score was used to identify and rank those molecules that were most competitive with pTide (e.g., that have higher binding affinity). A Z score is defined as Z=(x−μ)/σ, where x is a raw score, μ is the mean of the population, and σ is the standard deviation of the population. Molecules with the most negative Z scores represent those with the highest Pin1 binding affinity. The Z′ value for this assay was around 0.70 and was consistent for day-to-day performance, with a coefficient of variation in the range of 4-5%.
A lower value of Ki is indicative of higher association and, accordingly, higher affinity of the substrate to the protein.

[22] = test system: cyclin D1 promoter; assay: cyclin D1 promoter luciferase activity with Pin1 overexpression; settings: 72 hours
[23] = test system: Pin1 and PML-RARα; assay: Pin1 and PML-RARα immunostaining in bone marrow of APL patients
Procedure: Tissue samples were washed with PBS and fixed with 4% paraformaldehyde at room temperature for 20 minutes, followed by permeabilization and blocking with PBS containing 0.1% Triton X-100 and 5% FBS for 1 hour. After another wash with PBS, immunostaining was performed by incubating the cells with mouse anti-Pin1 (1:1000), or rabbit anti-PML (Santa Cruz; 1:100) primary antibodies at 4° overnight. Primary antibodies were diluted in PBS containing 0.1% Triton X-100, 0.2% BSA, 0.5 mM PMSF, and 1 mM dithiothreitol. […] Samples were nuclear counterstained with 4,6-diamidino-2-phenylindole (DAPI), mounted and visualized with a LSM510 confocal imaging system.
Bone marrow aspirates were obtained with informed consent from the iliac crest of patients in whom the diagnosis of acute promyelocytic leukemia was suspected based on the morphological evaluation of peripheral blood smear. […] Samples tested positive for the PML/RARα rearrangement by RT-PCR.

[24] = test system: BMDCs co-cultured with naive CD4+ cells; assay: IL-33-induced TH2 polarization, BMDC / naive CD4+ T cell coculture; settings: IL-33 50 ng/ml, 5 μM ATRA
Procedure: BMDCs were isolated from WT or Pin1 KO mice in a 1:5 ratio for 5 days with no antigen being added. […] Supernatants were analyzed for cytokines on day 5.
To examine whether Pin1 is required for IL-33-induced TH2 polarization, we evaluated the effects of Pin1 KO derived dendritic cells in IL-33-induced TH2 polarization by co-culturing bone marrow dendritic cells (BMDCs) derived from WT or Pin1 KO mice with WT naïve CD4^+ cells. The cells were treated with IL-33 and resultant IL-5 and IL-13 were measured.

[25] = test system: Flag-PML-RARα and Pin1
[26] = 5 or 10 mg 21 day pellets implanted 1 week after inoculation
[27] = cells stably expressing Flag-Pin1, ATRA implants
[28] = three sensitive cancer cell lines, 72 hours

T2 sequence (Q13526 whole entry): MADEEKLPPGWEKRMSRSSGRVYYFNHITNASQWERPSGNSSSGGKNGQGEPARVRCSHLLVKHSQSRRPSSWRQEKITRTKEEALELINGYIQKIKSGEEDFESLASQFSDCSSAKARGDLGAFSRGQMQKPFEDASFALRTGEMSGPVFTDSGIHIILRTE
T1 sequence (Q13526 whole entry, the tested form may be a part): as the sequence (Q13526 whole entry) above
GST-FKBP12, sequence (P62942 whole entry): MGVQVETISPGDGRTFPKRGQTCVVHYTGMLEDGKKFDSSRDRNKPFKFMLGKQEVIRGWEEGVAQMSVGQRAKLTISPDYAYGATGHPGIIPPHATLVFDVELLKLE

Question: What does the source list for `CC1=C(/C=C/C(C)=C/C=C/C(C)=C/C(=O)O)C(C)(C)CCC1` [ATRA, (2E,4E,6E,8E)-3,7-dimethyl-9-(2,6,6-trimethylcyclohexen-1-yl)nona-2,4,6,8-tetraenoic acid]?
Answer: Kd [1]: 800 nM; inhibition of PPlase activity of Pin1 [2]: fully inhibited; Ki ([2]; Cheng-Prusoff equation, read-out: Ki from PPlase assay): 820 nM; inhibition of FKBP12 [3]: did not inhibit; potency in reducing Pin1 levels and stability, comparison [4]: more potent in reducing Pin1 levels and stability than 13cRA; Pin1 protein level ([4]; immunoblot, not W34/K63A mutant): dose-dependently down-regulated Pin1; Pin1 mRNA levels ([4]; quantitative RT-PCR): no obvious effects; Pin1 and PML-RARα expression ([5]; 10 μM, 96 hours, micrographs): reduced Pin1 and PML-RARα expression; PML-RARα level in APL cells ([5]; 72 hours): dose-dependently reduced PML-RARα; NB4 cell proliferation [6]: suppressed; sensitivity of malignant breast cells [7]: differential susceptibility; sensitivity of non-transformed MCF10A and HMLE cells [7]: highly resistant; reduction of target gene expression in IRAKM P111A cells [8]: completely abolished; Pin1 expression ([8]; 5 or 10 μM ATRA for three days before IL-33): reduced Pin1 expression; expression of IL-6, CXCL2, CSF3 and CCL5 in IRAKM stably expressing cells ([8]; even at low ATRA dose (5 μM)): reduced Pin1 expression (FIG. 63D) and the expression of these target genes; reduction of target gene expression in IRAKM S110E cells ([8]; high ATRA dose (10 μM)): some degree of reduction in gene expression still persisted; PML-RARα in the bone marrow [9]: effectively reduced PML-RARα; Pin1 levels in the bone marrow [9]: reduced Pin1 levels; spleen weights [9]: nearly at basal levels; half-life [10]: ~45 min; visual lupus-related phenotypes (fur loss, skin inflammation, lymphoid hyperplasia) ([11]; 5 mg ATRA for 8 weeks from 8 weeks of age): drastically suppressed; size of spleen and lymph node ([11]; 14 week-old mouse): normal size; glomerular deposition of IgG, C3, and CD68 ([11]; mouse, in vivo): potently inhibited; hyperkeratinosis ([11]; mouse, in vivo): potently inhibited; IL-33 induced asthma phenotypes (inflammation, airway remodeling, BALF cells) ([12]; 10 mg 21 day ATRA-releasing pellets, 14 days before intranasal IL-33): dramatically attenuated; BALF IL-12 and TNF-α levels ([12]; same regimen): no significant effect; BALF IL-13 and -5 levels ([12]; same regimen): significantly reduced; IRAKM accumulation and nuclear localization in BALF cells ([12]; same regimen): almost completely abrogated; IRAKM levels in the lung ([12]; same regimen): reduction of IRAKM levels back to control treated mice; Pin1 protein levels in the lung ([12]; same regimen): effectively decreased the Pin1 protein levels only after IL-33 was administrated; antitumor activity, intraperitoneal ([13]; 12.5 mg/kg i.p. 3 times a week for 8 weeks): modest antitumor activity; Pin1 and cyclin D1 in xenograft tumors ([13]; 5 or 10 mg 21 day pellets): reduced both Pin1 and its substrate cyclin D1; tumor growth, ATRA-releasing pellets [13, 26]: potently and dose-dependently inhibited tumor growth; endogenous and exogenous Pin1 and cyclin D1 in tumors [13, 27]: dose-dependently reduced both endogenous and exogenous Pin1, and cyclin D1; tumor growth of Pin1-overexpressing MDA-MB-231 cells [13, 27]: effectively inhibited by ATRA in a dose-dependent manner; Pin1 and cyclin D1 in xenograft tumors ([14]; 5 or 10 mg 21 day pellets): reduced both Pin1 and its substrate cyclin D1; tumor growth, ATRA-releasing pellets [14, 26]: potently and dose-dependently inhibited tumor growth; growth inhibition of Pin1 KO MEFs ([15]; Pin1 KO MEFs): much more resistant; growth inhibition of Pin1 WT MEFs ([15]; Pin1 WT MEFs): relatively high concentrations of ATRA were required; Pin1-enhanced foci formation [16]: dose-dependently and fully inhibited; transactivation of RAR downstream target genes [17]: effectively and significantly induces transactivation of RAR downstreams; inhibition of cyclophilin [18]: did not inhibit; Pin1-induced centrosome amplification [19]: dose-dependently and fully inhibited; effects on normal breast cells ([20]; normal cells): no appreciable effects; protein levels of Pin1 and its substrate oncogenes [20, 28]: dose-dependent protein reduction; protein levels of Pin1 substrate tumor suppressors [20, 28]: protein induction; Pin1 binding in FP assay [21]: dramatically outperformed the other species; competition with TAMRA-conjugated pTide for Pin1 ([21]; TAMRA-labeled probe): competitive; Pin1-induced activation of the cyclin D1 promoter [22]: dose-dependently and fully inhibited; PML-RARα level remaining in APL patients' bone marrow ([23]; 3 days of ATRA treatment): ~40%; Pin1 level remaining in APL patients' bone marrow ([23]; 3 days of ATRA treatment): ~40%; PML-RARα level remaining in APL patients' bone marrow ([23]; 10 days of ATRA treatment): < 10%; Pin1 level remaining in APL patients' bone marrow ([23]; 10 days of ATRA treatment): < 10%; TH2 polarization (IL-5 and IL-13 secretion) [24]: drastically attenuated; degradation of PML-RARα and Pin1 in RARα, β, γ triple KO MEFs [25]: induced degradation of PML-RARα and Pin1 similar to that for WT controls
